Results taken from patent US20070167408A1, “NOVEL ALKYL PHOSPHOLIPID DERIVATIVES WITH REDUCED CYTOTOXICITY AND USES THEREOF” (ZENTARIS GmbH, priority 2005, published 2007).
In brackets after ≈: the same amount, converted by molar mass.

Assays:
[1] = tested on: Aspergillus fumigatus 322-384; assay: Anti-fungal broth microdilution (MIC), fungus B; format: cell-based; settings: filamentous protocol, more than 50% growth inhibition, 48 to 72 h
In short: (§1)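 Broth microdilution per NCCLS M27-A (yeasts) and M38-A (filamentous fungi), compounds tested from 64 down to 0.125 μg/ml against 10^6 CFU/ml inocula. For filamentous fungi, MIC read after 48 to 72 h at 35° C as the concentration giving more than 50% visible growth inhibition.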

[2] = tested on: Candida albicans ATCC 10231; assay: Anti-fungal broth microdilution (MIC), fungus D; format: cell-based; settings: yeast protocol, more than 80% inhibition, 48 h
In short: as §1

Candida albicans TS3 = assay: Anti-fungal broth microdilution (MIC), fungus F; format: cell-based; settings: yeast protocol, more than 80% inhibition, 48 h
In short: as §1

[3] = tested on: Cryptococcus neoformans H99; assay: Anti-fungal broth microdilution (MIC), fungus I; format: cell-based; settings: yeast protocol, more than 80% inhibition, 48 h
In short: as §1

[4] = tested on: Cryptococcus gattii ATCC 32608; assay: Anti-fungal broth microdilution (MIC), fungus J; format: cell-based; settings: yeast protocol, more than 80% inhibition, 48 h
In short: as §1

[5] = tested on: Trypanosoma brucei rhodesiense (strain STIB900); assay: In vitro drug activity assay, protozoon B; format: cell-based; settings: bloodstream form trypomastigotes, 72 hours, Alamar Blue
Protocol: (§2) In vitro activity of selected compounds of the invention against different protozoa was assessed as follows.
Trypanosoma brucei rhodesiense STIB900 bloodstream form trypomastigotes were maintained in HMI-18 medium (Hirumi H, Hirumi K, J Parasitol. 1989, 75(6):985-989) with 15% heat-inactivated fetal calf serum at 37° C., 5% CO2, humidified atmosphere. Trypomastigotes were washed and resuspended in fresh medium at a concentration of 2×10^5 mL. Test compounds were given to the trypomastigotes and plates were incubated for 72 hours at 37° C., 5% CO2, humidified atmosphere. At 72 hours the plates were assessed microscopically before Alamar Blue was added (Raz et al., Acta Trop. 1997, 68: 139-147). Plates were read after 5 to 6 hours at EX/EM 530/585 nm with a filter cutoff at 550 nm. ED50 values were calculated with Msxlfit (IDBS).
(§3) The following protozoa were assessed: • A) Trypanosoma cruzi (Tulahuan-LACZ amstigotes in PEM, Lorente S O et al., Antimicrobial agents and chemotherapy 2004, 48(8): 2937-2950; Buckner et al., Infection and Immunity 1999, 67(1): 403-409; Buckner et al., Antimicrobial Agents and Chemotherapy 1996, 40(11): 2592-2597) • B) Trypanosoma brucei rhodesiense (strain STIB900, Lorente S O et al., Antimicrobial agents and chemotherapy 2004, 48(8): 2937-2950; Habtemariam S, BMC Pharmacology 2003, 3:6) • C) Plasmodium falciparum (strain K1, Korsinczky M et al., Antimicrobial agents and chemotherapy 2000, 44(8): 2100-2108; Thaitong S and Beale G H, Trans. R. Soc. Trop. Med. Hyg. 1981, 75: 271-273; Trager W and Jensen J B, Science 1976, 193: 673-675) • D) Plasmodium faiciparum (strain 3D7, Mu et al., PLoS Biology 2005, 3(10): e335)

[6] = tested on: Plasmodium falciparum (strain K1); assay: In vitro drug activity assay, protozoon C; format: cell-based; settings: strain K1, 3[H]-hypoxanthine method
Protocol: as §2
(§4) Plasmodium falciparum strain K1 and strain 3D7 parasites were cultured according to Trager W and Jensen J B (Science 1976, 193: 673-675). In vitro drug susceptibility assays with the test compounds were carried out according to Korsinczky M et al. (Antimicrobial agents and chemotherapy 2000, 44(8): 2100-2108) and Fivelman Q L et al. (Antimicrobial agents and chemotherapy 2004, 48(11): 4097-4102) using a ^3[H]-hypoxanthine radioisotope method. ED50 values were calculated with Msxlfit (IDBS).
as §3

[7] = tested on: Plasmodium faiciparum (strain 3D7); assay: In vitro drug activity assay, protozoon D; format: cell-based, Plasmodium falciparum; settings: strain 3D7, 3[H]-hypoxanthine method
Protocol: as §2, §4, §3

[8] = tested on: epimastigotes of Trypanosoma cruzi strain Y; assay: In vitro activity of miltefosine and benznidazole against epimastigotes; format: cell-based; settings: 72 h
Protocol: In vitro activity of Miltefosine and Benznidazole in the course of a combination treatment against Trypanosoma cruzi strain Y was assessed compared to the respective single treatments with miltefosine or benznidazole alone.
Miltefosine and Benznidazol were tested in vitro in combination against epimastigote forms of Trypanosoma cruzi strain Y which were isolated from a chagasic patient in Sao Paulo, Brazil and obtained from Dr. Victor Nussenzweig (Silva, L H. and Nussenzweig, V.; Folia clin. biol., 20: 191-207, 1953). This T. cruzi Y strain can also be ordered at ATCC 50832, while the ATCC strain must be re-adapted by several passages through mice in order to regain the strain's original characteristics of differentiation and virulence.
Epimastigotes were axenially cultured in brain heart infusion medium (BHI, Becton, Dickinson, Cat. No. 221812) supplemented with 10 mg of hemin per liter and 5% heat inactivated fetal calf serum (FCS) at 28° C. with shaking (˜80 rpm) up to a maximum of 10-12 passages, before the cultures were aged to obtain metacyclics that were purified on a DE-52 column (Whatman DEAE cellulose ion exchange column, Waco, Cat. No. 17050-03 or 17050-04) and injected into mice. After 2-4 weeks parasites were recovered from blood and placed back into axenic culture.
Stock solutions of Miltefosine and Benznidazol in concentrations of 10 mg/ml and 20 mg/ml dissolved in methanol were used. Stock solutions were serially diluted with a factor of 2 in BHI-FCS medium. For Benznidazol the following testing concentrations were used: 80 μg/ml, 40 μg/ml, 20 μg/ml, 10 μg/ml, 5 μg/ml and 2.5 μg/ml. The testing concentrations for Miltefosine were 20 μg/ml, 10 μg/ml, 5 μg/ml, 2.5 μg/ml, 1.25 μg/ml and 0.625 μg/ml.
2×10^6 epimastigotes were incubated in BHI-FCS medium with Miltefosine and Benznidazol in a final volume of 200 μl. After 72 h incubation at 28° C., parasite growth was determined by direct counting the number of parasites with a Neubauer chamber. The 50% inhibitory concentrations were determined by linear regression analysis.

Row | SMILES | MIC, fungus B [1] [µg/mL] | MIC, fungus D [2] [µg/mL] | MIC, fungus F (Candida albicans TS3) [µg/mL] | MIC, fungus I [3] [µg/mL] | MIC, fungus J [4] [µg/mL] | ED50 (μg/mL), protozoon B [5] [µg/mL] | ED50 (μg/mL), protozoon C [6] [µg/mL] | ED50 (μg/mL), protozoon D [7] [µg/mL] | Epimastigotes [amount/mL] ([8]; miltefosine 1.25 ug/mL) | Epimastigotes [amount/mL] ([8]; miltefosine 2.5 ug/mL)
1 | CCCCCCCCCCCCCCCCOP(=O)([O-])OCC[N+]1(C)CCCCC1 [Compound 2, Phosphoric acid hexadecyl ester 2-(1-methyl-piperidin-1-yl)-ethyl ester] | 2 (≈ 4.47 µM) | 1 (≈ 2.23 µM) | 1.5 (≈ 3.35 µM) | 1 (≈ 2.23 µM) | 0.75 (≈ 1.68 µM) | 17.50 (≈ 39.1 µM) | 19.36 (≈ 43.2 µM) | 2.21 (≈ 4.94 µM) |  | 
2 | CCCCCCCCCCCCCCCCOP(=O)([O-])OCC[N+](C)(C)C [miltefosine, hexadecylphosphocholine, reference compound] |  |  |  |  |  |  |  |  | 820.000 | 290.000
